How the values were obtained:
mANO1 [1] = target: T1, mANO1 (Mus musculus, UniProt Q8BHY3, S527P); experiment: Two-electrode voltage clamp currents in Xenopus oocytes injected with mANO1 complementary RNA; assay type: cell-based; design: expressed in transfected cells; host or cells: Xenopus laevis oocytes (cRNA injection); conditions: for block of LPA-induced ANO1 currents: DIDS 300 μM, niflumic acid 200 μM, NPPB 200 μM applied 10˜20 min before LPA; for block of LPA current responses by pretreatment: mANO1 oocytes, 1 μM thapsigargin for 3 hours or 10 μM U-73122 for 20 min before 1 μM LPA
T1 sequence (Q8BHY3 1-960 S527P): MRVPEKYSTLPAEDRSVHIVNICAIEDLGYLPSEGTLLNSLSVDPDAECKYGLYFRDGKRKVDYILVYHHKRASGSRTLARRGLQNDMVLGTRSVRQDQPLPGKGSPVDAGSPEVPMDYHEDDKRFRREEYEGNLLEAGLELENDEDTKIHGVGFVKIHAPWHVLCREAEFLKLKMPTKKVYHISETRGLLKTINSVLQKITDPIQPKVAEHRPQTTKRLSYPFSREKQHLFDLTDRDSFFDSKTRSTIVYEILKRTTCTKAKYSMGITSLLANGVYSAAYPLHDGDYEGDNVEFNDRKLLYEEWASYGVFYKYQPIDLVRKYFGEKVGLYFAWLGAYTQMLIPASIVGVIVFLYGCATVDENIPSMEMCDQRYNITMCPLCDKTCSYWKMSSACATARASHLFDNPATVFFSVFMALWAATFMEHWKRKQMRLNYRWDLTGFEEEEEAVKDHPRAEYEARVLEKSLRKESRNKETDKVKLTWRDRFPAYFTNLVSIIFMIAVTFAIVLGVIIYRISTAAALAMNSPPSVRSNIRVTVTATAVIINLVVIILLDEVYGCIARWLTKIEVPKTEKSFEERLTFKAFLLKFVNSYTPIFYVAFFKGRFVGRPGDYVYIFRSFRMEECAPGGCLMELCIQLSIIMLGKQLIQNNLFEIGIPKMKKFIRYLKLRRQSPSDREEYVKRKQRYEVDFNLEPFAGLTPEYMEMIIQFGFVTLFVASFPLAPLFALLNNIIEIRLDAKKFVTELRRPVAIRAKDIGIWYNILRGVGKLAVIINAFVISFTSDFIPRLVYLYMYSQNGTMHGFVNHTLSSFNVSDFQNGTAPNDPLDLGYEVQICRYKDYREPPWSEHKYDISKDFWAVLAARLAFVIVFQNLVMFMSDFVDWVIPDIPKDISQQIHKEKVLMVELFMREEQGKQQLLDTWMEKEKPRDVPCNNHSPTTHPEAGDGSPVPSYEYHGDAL
Procedure: pSDTF-mANO1 obtained in Reference Example 1 was linearized using BamHI. Complementary RNA was transcribed with SP6 RNA polymerase (mMESSAGE mMACHINE® SP6 Kit, Ambion, Austin, Tex.). After being defolliculated with collagenase (Type IA, Sigma), Xenopus laevis oocytes were injected with 50 ng of the complementary RNAs of mANO1 in 50 nl of diethylpyrocarbonate-treated water. Two to five days after the injection, whole cell currents were recorded using the two-electrode voltage clamp technique. The bath solution contained 96 mM NaCl, 1 mM MgCl2, 5 mM HEPES, 2 mM KCl and 1.8 mM CaCl2 at pH 7.5 and was perfused at 2 ml/min. Experiments were performed at room temperature.
Xenopus oocytes provide a recognized model for endogenous CaCC studies because they express endogenous CaCCs that are required for ‘fertilization depolarization’ (Hartzell, H. C. et al., Mol Pharmacol 51, 683-92 (1997)). Furthermore, the biophysical and pharmacological properties of Xenopus CaCCs are similar to those of mammalian CaCCs (Machaca, K. et al., Calcium-Activated Chloride Channels (ed. Fuller, C. M.) (Academic Press, Amsterdam, 2002)). Accordingly, the present inventors expressed mANO1 in Xenopus oocytes and tested its activation by receptor stimulation using 1 μM LPA (lysophosphatidic acid). CaCCs in Xenopus are known to be activated by LPA (Guo, Z. et al., Proc Natl Acad Sci USA. 93, 14367-72 (1996); and Kim, M. J. et al., Biochem Pharmacol. 59, 241-7 (2000)). […] Moreover, LPA-induced ANO1 currents were outwardly-rectifying, like those of native CaCCs in Xenopus oocytes (Machaca, K. et al., supra) (FIG. 4C). The reversal potential was 37.7±1.05 mV (n=5), which is close to the equilibrium potential of Cl^− in Xenopus oocytes (Weber, W., Biochim Biophys Acta 1421, 213-33 (1999)).
Indeed, LPA (1 μM) applied to oocytes expressing mANO1 induced a large inward current.
Further, pretreatment of 1 μM thapsigargin blocked the IP3-induced current in a mANO1-expressing oocyte (FIGS. 10C and 10D).
(§1) LPA-induced ANO1 currents were blocked by Cl^− channel blockers. The Cl^− channel blockers were applied 10˜20 min before the LPA application. […] This blockade of agonist-induced ANO1 currents by DIDS, niflumic acid, or NPPB were also observed in mammalian cells transfected with mANO1.

mANO1 [2] = target: T1, mANO1; experiment: Inhibition of endothelin-1 evoked currents in mANO1-ETAR/HEK cells by Cl− channel and CaCC blockers; assay type: cell-based; design: expressed in transfected cells; conditions: ANO1/ETAR-HEK cells; blockers 10 μM (mefloquine 5 μM) applied 5 min before second 50 nM endothelin-1
Procedure: B. Inhibition of endothelin-1 evoked currents in mANO1-ETAR/HEK cells by Cl^− channel blockers as well as classical inhibitors (each, n=5) of native CaCCs. Chemicals in 10 μM (except mefloquine, 5 μM) were applied 5 min before the second application of endothelin-1. Control (n=12). **p<0.001 compared to control (ANOVA, Duncan's post hoc test). (Error bars=Mean±S.E.M)
(§2) To form gigaseals, individual cell surfaces were touched with a ˜3 Mohm Sylgard-coated glass pipette with gentle suction, and the junction potential was then adjusted to 0 mV. The membrane in contact with the pipette was then ruptured by suction to form a whole cell. The pipette solution contained 140 mM NMDG-Cl, 2 mM MgCl2, 10 mM HEPES, 2 mM ATP, and 0.3 mM GTP adjusted to pH 7.2, and the bath solution contained 140 mM NMDG-Cl, 2 mM MgCl2 and 10 mM HEPES (pH 7.2). For ion selectivity experiments, 140 mM NMDG-Cl was replaced with equimolar NaCl, NaL NaBr, NaNO3, NaF, or Na-gluconate in the bath solution. To determine current-voltage relationships, voltage ramps from −80 or −100 mV to +80 or +100 mV were delivered for 350 ms, or voltage-pulses from −100 mV to +100 mV were delivered for 400 ms to whole cells. When mANO1 was activated by 300 nM intracellular Ca^2+, voltage-pulses of 2500 ms were delivered. Whole-cell currents were amplified using an Axopatch 200B amplifier (Molecular Device, Sunnyvale, Calif.) and stored in a personal computer after digitization by a Digidata 1440 (Molecular Device). For single-channel current recordings, cell-attached or inside-out patches were formed from gigaseals. The pipette and control bath solution contained 140 mM NMDG-Cl, 2 mM MgCl2 and 10 mM HEPES (pH 7.2). […] To create amplitude histograms, pClamp software (version 6.0, Molecular Device) was used to analyze open and closed single-channel current events. The half-amplitude algorithm was used to determine an open event. The minimum duration of an open event was set at 0.1 ms.
as §1
In addition, modifiers of various enzymes or transporters such as fluoxetine (serotonin reuptake inhibitor), tamoxifen (estrogen receptor modulator), n-phenyl-anthranilic acid (NPA, cyclooxygenase inhibitor), and mefloquine (antimalarial drug) are known to block native CaCCs (Eggermont, J., Proc Am Thorac Soc. 1, 22-7 (2004); Nilius, B. et al. J Physiol. 498, 381-96 (1997); Nilius, B. & Droogmans, G., Acta Physiol Scand 177, 119-47 (2003)). If ANO1 is a CaCC, mANO1 should be inhibited by these CaCC blockers.

mANO1 [3] = experiment: Whole-cell current response to GPCR stimulation in HEK 293T cells co-transfected with mANO1 and a GPCR; assay type: cell-based, mouse; conditions: mANO1 co-expressed in HEK cells with M1R, H1R or AT1R; carbachol 1 μM, histamine 100 μM, angiotensin II 1 μM
Procedure: HEK 293T cells were transfected with pEGFP-N1 (control) (1.0 μg) or pEGFP-N-1-mANO1 (0.8˜1.0 μg) and/or any one of the GPCR cDNAs (1.0 μg) obtained in Reference Example 2, using a FuGENE® HD transfection reagent (Roche Diagnostics, Penzberg, Germany). Transfected cells were maintained in DMEM supplemented with heat inactivated 10% fetal bovine serum (GIBCO BRL, Rockville, Md.) and penicillin-streptomycin at 37 in a 5% CO2 humidified atmosphere. One or two days after transfection, transfected cells were used for biochemical and electrophysiological experiments.
as §2
Under physiological conditions CaCCs are known to be activated by GPCR stimulation. Endothelin-1 is a powerful vasoconstrictor that depolarizes vascular smooth muscle by activating CaCCs (Klockner, U. & Isenberg, G., Pflugers Arch. 418, 168-75 (1991); and Salter, K. J. & Kozlowski, R. Z., J Pharmacol Exp Ther. 279, 1053-62 (1996)). Thus, mANO1 and endothelin receptor subtype A (ETAR) were transfected into HEK 293T cells, along with GFP for visual identification of transfected cells, in accordance with the method of Reference Example 5. Whole cells were used to test the current response of mANO1 to ETAR stimulation. Pipette and bath solutions contained 140 mM N-methyl D-glucamine (NMDG)-Cl, which permitted Cl^− to be used as the main charge carrier. The pipette solution was Ca^2+ free and contained no EGTA. […] In contrast, endothelin-1 evoked currents were minimal in HEK cells transfected with ETAR or control (GFP-transfected only) cells. When mANO1 was transfected alone, 50 nM endothelin-1 evoked appreciable currents; presumably because of the presence of endogenous endothelin receptors in HEK cells.

O=S(=O)(O)c1cc(N=C=S)ccc1C=Cc1ccc(N=C=S)cc1S(=O)(=O)O [DIDS, 4,4′-diisothiocyanato-stilbene-2,2′-disulfonic acid]
block of LPA-induced ANO1 currents (mANO1 [1]; Xenopus oocytes): significantly blocked | inhibition of response to second application of endothelin-1 (endothelin-1 induced currents) (mANO1 [2]): markedly inhibited

O=P(O)(O)O[C@@H]1[C@H](O)[C@H](O)[C@@H](OP(=O)(O)O)[C@H](OP(=O)(O)O)[C@H]1O [IP3, inositol 1,4,5,-triphosphate]
inward currents evoked by IP3 micro-injection (mANO1 [1]; 2 mM IP3 in 50 nl into oocytes expressing ANO1): evoked robust inward currents

O=C(O)c1cc([N+](=O)[O-])ccc1NCCCc1ccccc1 [NPPB, 5-nitro-2-(3-phenyl-propylamino)-benzoate]
block of LPA-induced ANO1 currents (mANO1 [1]; Xenopus oocytes): significantly blocked | inhibition of response to second application of endothelin-1 (endothelin-1 induced currents) (mANO1 [2]): markedly inhibited

COc1ccc2c(c1)CC[C@@H]1[C@@H]2CC[C@]2(C)[C@@H](NCCCCCCN3C(=O)C=CC3=O)CC[C@@H]12 [U-73122]
block of LPA current responses by pretreatment (mANO1 [1]): completely blocked

C[N+](C)(C)CCOC(N)=O [carbachol]
current responses to GPCR ligands (mANO1 [3]): robust current responses

CNCCC(Oc1ccc(C(F)(F)F)cc1)c1ccccc1 (stereo not drawn) [fluoxetine]
inhibition of response to second application of endothelin-1 (endothelin-1 induced currents) (mANO1 [2]): markedly inhibited

NCCc1c[nH]cn1 [histamine]
current responses to GPCR ligands (mANO1 [3]): robust current responses

OC(c1cc(C(F)(F)F)nc2c(C(F)(F)F)cccc12)C1CCCCN1 (stereo not drawn) [mefloquine]
inhibition of response to second application of endothelin-1 (endothelin-1 induced currents) (mANO1 [2]): markedly inhibited

O=C(O)c1ccccc1Nc1ccccc1 [n-phenyl-anthranilic acid]
inhibition of response to second application of endothelin-1 (endothelin-1 induced currents) (mANO1 [2]): markedly inhibited

O=C(O)c1cccnc1Nc1cccc(C(F)(F)F)c1 [niflumic acid]
block of LPA-induced ANO1 currents (mANO1 [1]; Xenopus oocytes): significantly blocked | inhibition of response to second application of endothelin-1 (endothelin-1 induced currents) (mANO1 [2]): markedly inhibited

CC/C(=C(\c1ccccc1)c1ccc(OCCN(C)C)cc1)c1ccccc1 [tamoxifen]
inhibition of response to second application of endothelin-1 (endothelin-1 induced currents) (mANO1 [2]): markedly inhibited

C/C=C(/C)C(=O)O[C@H]1C(C)=C2[C@H]([C@@H]1OC(=O)CCCCCCC)[C@@](C)(OC(C)=O)C[C@H](OC(=O)CCC)[C@@]1(O)[C@H]2OC(=O)[C@@]1(C)O [thapsigargin]
block of LPA current responses by pretreatment (mANO1 [1]): completely blocked | block of IP3-induced current (mANO1 [1]; pretreatment of 1 μM thapsigargin, mANO1-expressing oocyte): blocked

angiotensin II (DRVYIHPF) [ligand of angiotensin receptor subtype 1 (AT1R)]
current responses to GPCR ligands (mANO1 [3]): robust current responses

lysophosphatidic acid [LPA]
current response to LPA in mANO1 RNA-injected vs water-injected oocytes (mANO1 [1]; 1 μM LPA, Xenopus oocytes, −60 mV): increased about six fold
